Data as given in US20260297042A1, “BIARYLAMIDE DERIVATIVES AND THEIR USE AS PKMYT1 INHIBITORS” (CANCER RESEARCH TECHNOLOGY LIMITED, priority 2023, published 2026).
Counter-ions that a name gives are not always drawn.

Key:
WEE1 = target: T1, WEE1 (Homo sapiens, UniProt P30291); test: Selectivity versus WEE1 assay (ADP-Glo enzymatic assay); format: biochemical; details: for IC50: ADP-Glo; for PKMYT1 vs. WEE1 selectivity: fold difference in selectivity for PKMYT1 over WEE1
T1 construct: purchased Thermo Fisher PR7373A
Method in brief: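 Same format as the PKMYT1 assay: WEE1 at 15 nM final with 30 µM ATP, 60 min at 26° C, ADP-Glo luminescence detection, IC50 by dose-response fitting.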

Human PKMYT1 = target: T2, Human PKMYT1 (Homo sapiens, UniProt Q99640); test: PKMYT1 biochemical ADP-Glo enzymatic assay; details: ADP-Glo
T2 construct: Human PKMYT1 75-362 was cloned as a TEV cleavable 6xHis fusion; 6xHis (TEV cleavable) (cleaved yes); made in house; host or cells: bacterial cells
T2 sequence (Q99640 75-362): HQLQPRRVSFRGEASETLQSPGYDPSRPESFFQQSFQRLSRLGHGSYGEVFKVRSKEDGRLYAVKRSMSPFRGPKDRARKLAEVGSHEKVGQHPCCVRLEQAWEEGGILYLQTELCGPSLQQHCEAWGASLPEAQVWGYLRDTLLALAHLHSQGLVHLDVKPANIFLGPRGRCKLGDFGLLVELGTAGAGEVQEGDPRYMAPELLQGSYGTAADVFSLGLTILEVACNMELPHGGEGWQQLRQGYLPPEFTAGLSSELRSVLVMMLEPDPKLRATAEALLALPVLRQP
Method in brief: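 Measures inhibition of PKMYT1 autonomous ATP hydrolysis: bacterially expressed human enzyme (75-362, tag cleaved) at 15 nM with 500 µM ATP for 60 min at 26 °C, then ADP-Glo Max detection. IC50s accepted only when replicates agreed within 3-fold and curve r2 exceeded 0.9.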

[1] = 15 nM WEE1, 60 minutes at 26° C., banded
[2] = banded, ">N" = at least in this band but could be higher
[3] = 15 nM PKMYT1 kinase domain, 500 µM ATP, 60 minutes at 26° C., banded
[4] = PKMYT1 kinase domain 15 nM, banded values

T1 sequence (P30291 whole entry): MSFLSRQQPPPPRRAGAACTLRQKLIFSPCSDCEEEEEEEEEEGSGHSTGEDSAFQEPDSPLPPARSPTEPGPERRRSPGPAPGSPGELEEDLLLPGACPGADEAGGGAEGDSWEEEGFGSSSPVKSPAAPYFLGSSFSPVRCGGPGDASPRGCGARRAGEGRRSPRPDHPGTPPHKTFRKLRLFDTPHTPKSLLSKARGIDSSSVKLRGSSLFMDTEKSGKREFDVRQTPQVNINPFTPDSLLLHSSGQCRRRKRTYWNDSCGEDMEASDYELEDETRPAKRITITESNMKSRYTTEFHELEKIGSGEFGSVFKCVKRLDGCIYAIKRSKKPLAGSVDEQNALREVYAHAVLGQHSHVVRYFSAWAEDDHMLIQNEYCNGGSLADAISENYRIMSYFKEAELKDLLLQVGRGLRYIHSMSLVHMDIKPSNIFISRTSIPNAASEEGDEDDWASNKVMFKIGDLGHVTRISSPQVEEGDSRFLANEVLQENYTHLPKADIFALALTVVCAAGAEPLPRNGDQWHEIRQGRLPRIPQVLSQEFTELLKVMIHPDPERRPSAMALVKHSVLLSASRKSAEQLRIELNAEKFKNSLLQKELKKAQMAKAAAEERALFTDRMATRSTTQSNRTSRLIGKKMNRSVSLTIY

Row | SMILES | IC50 (WEE1; [1]) | PKMYT1 vs. WEE1 selectivity (WEE1; [2]) | IC50 (Human PKMYT1; [3]) | IC50 (WEE1; WEE1 15 nM, banded values) | PKMYT1 vs. WEE1 selectivity (WEE1; banded) | IC50 (Human PKMYT1; [4])
1 | Cc1ccc(O)c(C)c1NC(=O)c1cnc(Nc2ccn(CC(=O)N3C[C@@H]4C[C@H]3CN4C(=O)OC(C)(C)C)n2)s1 [BAA-143] | > 11000 nM | Y (1000-5000 fold) | < 50 nM |  |  | 
2 | Cc1ccc(O)c(C)c1NC(=O)c1cnc(Nc2ccn(CC(=O)N3CC4CCC(C3)N4C(=O)OC(C)(C)C)n2)s1 [BAA-180] | > 11000 nM | Y (1000-5000 fold) | < 50 nM |  |  | 
3 | COc1c(Cl)ncnc1Nc1ncc(C(=O)Nc2c(C)ccc(O)c2C)s1 [BAA-562, 2-((6-chloro-5-methoxypyrimidin-4-yl)amino)-N-(3-hydroxy-2,6-dimethylphenyl)thiazole-5-carboxamide] |  |  |  | > 11000 nM | Y (1000-5000 fold) | < 50 nM
4 | Cc1cccc(CNc2ncc(C(=O)Nc3c(C)ccc(O)c3C)s2)c1O [BAA-363, N-(3-hydroxy-2,6-dimethylphenyl)-2-((2-hydroxy-3-methylbenzyl)amino)thiazole-5-carboxamide] | > 11000 nM | X (100-<1000 fold) | 50 to 1000 nM |  |  | 
5 | Cc1ccc(O)c(C)c1NC(=O)c1cnc(Nc2n[nH]cc2Br)s1 [BAA-579, 2-((4-Bromo-1H-pyrazol-3-yl)amino)-N-(3-hydroxy-2,6-dimethylphenyl)thiazole-5-carboxamide] |  |  |  | 1000 to 11000 nM | X (100-<1000 fold) | < 50 nM
6 | Cc1cn(CC(=O)N2CCC2)nc1Nc1ncc(C(=O)Nc2c(C)ccc(O)c2C)s1 [BAA-374, 2-((1-(2-(azetidin-1-yl)-2-oxoethyl)-4-methyl-1H-pyrazol-3-yl)amino)-N-(3-hydroxy-2,6-dimethylphenyl)thiazole-5-carboxamide] | 1000 to 11000 nM | X (100-<1000 fold) | < 50 nM |  |  | 
7 | Cc1ccc(O)c(C)c1NC(=O)c1cnc(Nc2cc[nH]n2)s1 [BAA-003, N-(3-hydroxy-2,6-dimethyl-phenyl)-2-(1H-pyrazol-3-ylamino)thiazole-5-carboxamide] | > 11000 nM | W (10-<100 fold) | 1000 to 11000 nM |  |  | 
8 | Cc1ccc(O)c(C)c1NC(=O)c1cnc(Nc2ccn(CC(=O)NC3CCCC3)n2)s1 [BAA-192] | > 11000 nM | Y (1000-5000 fold) | < 50 nM |  |  | 
9 | CCN(CCO)C(=O)Cn1cc(C)c(Nc2ncc(C(=O)Nc3c(C)ccc(O)c3C)s2)n1 [BAA-535, 2-((1-(2-(Ethyl(2-hydroxyethyl)amino)-2-oxoethyl)-4-methyl-1H-pyrazol-3-yl)amino)-N-(3-hydroxy-2,6-dimethylphenyl)thiazole-5-carboxamide] |  |  |  | 1000 to 11000 nM | X (100-<1000 fold) | < 50 nM
10 | Cc1ccc(O)c(C)c1NC(=O)c1cnc(Nc2cc(C)n(C3CCS(=O)(=O)C3)n2)s1 (stereo not drawn) [BAA-564, 2-[[1-(1,1-Dioxothiolan-3-yl)-5-methyl-pyrazol-3-yl]amino]-N-(3-hydroxy-2,6-dimethyl-phenyl)thiazole-5-carboxamide] |  |  |  | 1000 to 11000 nM | W (10-<100 fold) | 50 to 1000 nM
11 | Cc1ccc(O)c(C)c1NC(=O)c1cnc(Nc2ccn(CC(=O)N3CCC(F)(F)CC3)n2)s1 [BAA-136, 2-[[1-[2-(4,4-difluoro-1-piperidyl)-2-oxo-ethyl]pyrazol-3-yl]amino]-N-(3-hydroxy-2,6-dimethyl-phenyl)thiazole-5-carboxamide] | > 11000 nM | Y (1000-5000 fold) | < 50 nM |  |  | 
12 | Cc1ccc(O)c(C)c1NC(=O)c1cnc(Nc2ccn([C@@H]3CCN(C(=O)C(F)(F)c4ccccc4)C3)n2)s1 [BAA-099, 2-[[1-[(3R)-1-(2,2-Difluoro-2-phenyl-acetyl)pyrrolidin-3-yl]pyrazol-3-yl]amino]-N-(3-hydroxy-2,6-dimethyl-phenyl)thiazole-5-carboxamide] | > 11000 nM | >X (100-<1000 fold) | 50 to 1000 nM |  |  | 
13 | Cc1ccc(O)c(C)c1NC(=O)c1cnc(Nc2ccn([C@@H]3CCN(C(=O)Cc4ccc(F)cc4)C3)n2)s1 [BAA-093] | > 11000 nM | >X (100-<1000 fold) | 50 to 1000 nM |  |  | 
14 | Cc1ccc(O)c(C)c1NC(=O)c1cnc(Nc2ccn(CC(=O)N3CCOCC3)n2)s1 [BAA-033] | > 11000 nM | X (100-<1000 fold) | < 50 nM |  |  | 
15 | Cc1ccc(O)c(C)c1NC(=O)c1cnc(Nc2cc3ccc(Cl)cn3n2)s1 [BAA-051, 2-[(6-chloropyrazolo[1,5-a]pyridin-2-yl)amino]-N-(3-hydroxy-2,6-dimethyl-phenyl)thiazole-5-carboxamide] | > 11000 nM | >X (100-<1000 fold) | 50 to 1000 nM |  |  | 
16 | Cc1ccc(O)c(C)c1NC(=O)c1cnc(NCC2CCN(C(=O)CC(C)(C)C)CC2)s1 [BAA-212, 2-[[1-(3,3-Dimethylbutanoyl)-4-piperidyl]methylamino]-N-(3-hydroxy-2,6-dimethyl-phenyl)thiazole-5-carboxamide] | > 11000 nM | >X (100-<1000 fold) | 50 to 1000 nM |  |  | 
17 | Cc1ccc(O)c(C)c1NC(=O)c1cnc(Nc2cccc3c2OCC3)s1 [BAA-530, 2-((2,3-dihydrobenzofuran-7-yl)amino)-N-(3-hydroxy-2,6-dimethylphenyl)thiazole-5-carboxamide. TFA salt] |  |  |  | > 11000 nM | X (100-<1000 fold) | 50 to 1000 nM
18 | Cc1ccc(O)c(C)c1NC(=O)c1cnc(Nc2ccn([C@@H]3CCN(C(=O)Cc4ccncc4)C3)n2)s1 [BAA-104, N-(3-hydroxy-2,6-dimethyl-phenyl)-2-[1-[(3R)-1-[2-(4-pyridyl)acetyl]pyrrolidin-3-yl]pyrazol-3-ylamino]thiazole-5-carboxamide] | > 11000 nM | >X (100-<1000 fold) | 50 to 1000 nM |  |  | 
19 | CCOc1ccccc1Nc1ncc(C(=O)Nc2c(C)ccc(O)c2C)s1 [BAA-539, 2-((2-ethoxyphenyl)amino)-N-(3-hydroxy-2,6-dimethylphenyl)thiazole-5-carboxamide. TFA salt] |  |  |  | > 11000 nM | X (100-<1000 fold) | 50 to 1000 nM
20 | Cc1ccccc1Nc1ncc(C(=O)Nc2c(C)ccc(O)c2C)s1 [BAA-483, N-(3-hydroxy-2,6-dimethylphenyl)-2-(o-tolylamino)thiazole-5-carboxamide] |  |  |  | > 11000 nM | X (100-<1000 fold) | 50 to 1000 nM
21 | Cc1ccc(O)c(C)c1NC(=O)c1cnc(Nc2ccn(CC(=O)N3CC[C@@H](O)C3)n2)s1 [BAA-139, N-(3-hydroxy-2,6-dimethyl-phenyl)-2-[[1-[2-[(3R)-3-hydroxypyrrolidin-1-yl]-2-oxo-ethyl]pyrazol-3-yl]amino]thiazole-5-carboxamide] | > 11000 nM | Y (1000-5000 fold) | < 50 nM |  |  | 
22 | COc1ccc(CC(=O)N2CCC(CNc3ncc(C(=O)Nc4c(C)ccc(O)c4C)s3)CC2)cc1 [BAA-213, N-(3-Hydroxy-2.6-dimethyl-phenyl)-2-[[1-[2-(4-methoxyphenyl)acetyl]-4-piperidyl]methylamino]thiazole-5-carboxamide] | > 11000 nM | >X (100-<1000 fold) | 50 to 1000 nM |  |  | 
23 | Cc1ccc(O)c(C)c1NC(=O)c1cnc(Nc2onc(C)c2C(N)=O)s1 [BAA-448, 5-((5-((3-hydroxy-2,6-dimethylphenyl)carbamoyl)thiazol-2-yl)amino)-3-methylisoxazole-4-carboxamide] |  |  |  | > 11000 nM | Y (1000-5000 fold) | < 50 nM
24 | COCCn1ccc(Nc2ncc(C(=O)Nc3c(C)ccc(O)c3C)s2)n1 [BAA-040] | > 11000 nM | X (100-<1000 fold) | 50 to 1000 nM |  |  | 
25 | CCn1ccc(Nc2ncc(C(=O)Nc3c(C)ccc(O)c3C)s2)n1 [BAA-005, 2-[(1-ethylpyrazol-3-yl)amino]-N-(3-hydroxy-2,6-dimethyl-phenyl)thiazole-5-carboxamide] | 1000 to 11000 nM | X (100-<1000 fold) | < 50 nM |  |  | 
26 | CCCn1ccc(Nc2ncc(C(=O)Nc3c(C)ccc(O)c3C)s2)n1 [BAA-006, N-(3-hydroxy-2,6-dimethyl-phenyl)-2-[(1-propylpyrazol-3-yl)amino]thiazole-5-carboxamide] | > 11000 nM | X (100-<1000 fold) | 50 to 1000 nM |  |  | 
27 | CNC(=O)Cn1ccc(Nc2ncc(C(=O)Nc3c(C)ccc(O)c3C)s2)n1 [BAA-141, N-(3-hydroxy-2,6-dimethyl-phenyl)-2-[[1-[2-(methylamino)-2-oxo-ethyl]pyrazol-3-yl]amino]thiazole-5-carboxamide] | > 11000 nM | X (100-<1000 fold) | < 50 nM |  |  | 
